We go through 39 compounds from patent US10183936B2, “Hepatitis B core protein allosteric modulators” (priority 2014, dated 2019).

Data set [1] deals with HBV viral production in AD38 cells. Kind of data set: Viral load production in AD38 cells by quantitative PCR of the HBV core sequence in supernatant. Conditions: Hepatitis B virus, 144 h; 10 μM compound, 6 days at 37° C., viral load in supernatant compared against DMSO control wells; read-out: AD38 Viral Load (CpAM/DMSO %) at 10 μM. It is filed as cell-based. The method, then:
(§1) Example 56: Assay Measuring Activity of Compounds on Viral Production in and on Viability of AD38 Cells
(§2) AD38 cells were then re-suspended with 10 mL of Treatment Medium and counted. Wells of a collagen coated 96-well NUNC microtiter plate were seeded at 50,000/well in 180 μL of Treatment Medium, and 20 μL of in treatment media with either 10% DMSO (Control) or a 10× solution of compound in 10% DMSO was added. Plates were incubated for 6 days at 37° C.
Viral load production was assayed by quantitative PCR of the core sequence. Briefly, 5 μL of clarified supematant was added to a PCR reaction mixture that contained forward primers HBV-f 5′-CTGTGCCTTGGGTGGCTTT-3′, Reverse primers HBV-r 5′-[…]-3′ and Fluorescent TaqMan™ Probes HBV-probe 5′-FAM/AGCTCCAAA/ZEN/[…]/3IABkFQ-3′ in Quanta Biosciences PerfeCTa® qPCR Toughmix®, and was subsequently on an Applied Biosystems VIIA7 in a final volume of 20 μL. The PCR mixture was incubated at 45° C. for 5 minutes, then 95° C. for 10 min, followed by 40 cycles of 10 seconds at 95° C. and 20 seconds at 60° C. Viral load was quantitated against known standards by using ViiA™ 7 Software. Viral load in the supematant from wells with treated cells were compared against viral load in supernatant from DMSO control wells (≥3 per plate).

The test system of a further data set is AD38 cells. Put plainly: Viability of AD38 cells (Promega CellTiter-Glo) at the end of compound treatment. The following applies: 10 μM compound, 6 days, luminescence normalized against DMSO control wells (controls being 100%). It is filed as cell-based. As to the method: as §1, §2
At the end of compound treatment period cell viability was assessed using a Promega CellTiter-Glo protocol. All supernatant was removed the previously treated 96-well microtiter plate, and 50 μL Tetracycline-free treatment medium (DMEM/F12 (1:1), lx Pen/step (cat#: 30-002-CL, Mediatech, Inc), with 2% FBS, Tet-system approved (cat#: 631106, Clontech), and 1% DMSO was added back to each well. Another 50 μL of CellTiter-Glo reagent solution (Promega, G7573) was then added at room temperature and the contents mixed for 2 minutes on an orbital shaker to induce cell lysis. This was followed by incubation at room temperature for 10 minutes to stabilize the luminescent signal. The luminescence was recorded for 0.2 seconds per well on a Tecan multimode platereader (Infinite M1000 pro). The luminescent signal from each well was normalized against that of untreated (DMSO) control wells. All results were reported percent viability (with controls being 100%).

As for `CCOc1ccc(CCNC(=O)c2ccc3c(c2)NC(=O)c2ccccc2S3)cc1` [Compound 1214], the activity at 10 µM in data set [1] amounted to 2%. The “AD38 Viability Normalized Result (CPAM/DMSO %) at 10 μM” value with AD38 cells amounted to 94%.
The matching figures for `O=C(NCCC1CCC(F)(F)CC1)c1ccc2c(c1)NC(=O)c1ccccc1S2` [Compound 1216]: 1% and 125%.
Taken in the same sequence, the figures for `O=C(NCCC1CCC(F)CC1)c1ccc2c(c1)NC(=O)c1ccccc1S2` (stereo not drawn) [Compound 1217] were 1% and 37%.
The matching figures for `O=C(NCc1ccccc1O)c1ccc2c(c1)NC(=O)c1ccccc1S2` [Compound 1219]: 5% and 100%.
As for `O=C(NC[C@H](O)c1ccccc1)c1ccc2c(c1)NC(=O)c1ccccc1S2` [Compound 1220], in data set [1], the activity at 10 µM worked out at 2%. In addition, the “AD38 Viability Normalized Result (CPAM/DMSO %) at 10 μM” value with AD38 cells turned out to be 94%.
Taken in the same sequence, the figures for `C[C@@H](O)CNC(=O)c1ccc2c(c1)NC(=O)c1ccccc1S2` [Compound 1221] were 19% and 106%.
Taken in the same sequence, the figures for `C[C@H](O)CNC(=O)c1ccc2c(c1)NC(=O)c1ccccc1S2` [Compound 1222] were 32% and 100%.
The matching figures for `O=C(Nc1ccccc1)c1ccc2c(c1)NC(=O)c1ccccc1S2` [Compound 1223]: 2% and 28%.
Regarding `O=C(NCCc1ccccc1)Nc1ccc2c(c1)NC(=O)c1ccccc1S2` [Compound 1224, 1-(11-oxo-10, 11-dihydrodibenzo [b,f] [1,4]thiazepin-8-yl)-3-phenethylurea], the activity at 10 µM in data set [1] was 3%. Besides, the “AD38 Viability Normalized Result (CPAM/DMSO %) at 10 μM” value in the data set on AD38 cells is 65%.
The matching figures for `O=C(NCCC1CCCCC1)Nc1ccc2c(c1)NC(=O)c1ccccc1S2` [Compound 1225, 1-(2-cyclohexylethyl)-3-(11-oxo-10, 11-dihydrodibenzo [b,f] [1,4]thiazepin-8-yl) urea]: 10% and 87%.
For the compound `O=C(NC[C@@H](O)c1ccccc1)c1ccc2c(c1)NC(=O)c1ccccc1S2` [Compound 1226], in data set [1], the activity at 10 µM worked out at 1%. Further, the “AD38 Viability Normalized Result (CPAM/DMSO %) at 10 μM” value in the data set on AD38 cells was found to be 80%.
For the compound `CN(C)c1ccccc1CNC(=O)c1ccc2c(c1)NC(=O)c1ccccc1S2` [Compound 1227], the activity at 10 µM in data set [1] came out at 10%. In the data set on AD38 cells, the “AD38 Viability Normalized Result (CPAM/DMSO %) at 10 μM” value is 92%.
Taken in the same sequence, the figures for `O=C(Nc1ccccc1O)c1ccc2c(c1)NC(=O)c1ccccc1S2` [Compound 1229] were 45% and 76%.
As to `O=C(Nc1ccccn1)c1ccc2c(c1)NC(=O)c1ccccc1S2` [Compound 1230], the activity at 10 µM in data set [1] turned out to be 46%. Moreover, the “AD38 Viability Normalized Result (CPAM/DMSO %) at 10 μM” value in the data set with AD38 cells came to 102%.
Consider `O=C(Nc1cccnc1)c1ccc2c(c1)NC(=O)c1ccccc1S2` [Compound 1231], for which the activity at 10 µM in data set [1] came to 12%. Moreover, in the data set with AD38 cells, the “AD38 Viability Normalized Result (CPAM/DMSO %) at 10 μM” value turned out to be 93%.
Taken in the same sequence, the figures for `O=C(NCc1ccccc1OC(F)(F)F)c1ccc2c(c1)NC(=O)c1ccccc1S2` [Compound 1232] were 42% and 94%.
Taken in the same sequence, the figures for `O=C(NCc1cncnc1)c1ccc2c(c1)NC(=O)c1ccccc1S2` [Compound 1233] were 1% and 93%.
Taken in the same sequence, the figures for `O=C(NCCC1CCCCC1)c1ccc2c(c1)NC(=O)c1ccc(F)cc1S2` [Compound 1234] were 3% and 79%.
Take `O=C(NCCC1CCCCC1)c1ccc2c(c1)NC(=O)c1cc(Cl)ccc1S2` [Compound 1235]: the activity at 10 µM in data set [1] came out at 6%. Also, the “AD38 Viability Normalized Result (CPAM/DMSO %) at 10 μM” value in the data set with AD38 cells was 61%.
Taken in the same sequence, the figures for `O=C(NCCC1CCCCC1)c1ccc2c(c1)NC(=O)c1ccncc1S2` [Compound 1237] were 4% and 66%.
The matching figures for `COC(C)(C)CCNC(=O)c1ccc2c(c1)NC(=O)c1ccccc1S2` [Compound 1238]: 26% and 104%.
Turning to `CNc1ccccc1CNC(=O)c1ccc2c(c1)NC(=O)c1ccccc1S2` [Compound 1239, N-(2-(methylamino)benzyl)-11-oxo-10, 11-dihydrodibenzo [b,f] [1,4] thiazepine-8-carboxamide], in data set [1], the activity at 10 µM is 33%. Also, the “AD38 Viability Normalized Result (CPAM/DMSO %) at 10 μM” value in the data set on AD38 cells is recorded as 106%.
The matching figures for `O=C(NCc1ccccc1N1CCCC1)c1ccc2c(c1)NC(=O)c1ccccc1S2` [Compound 1240]: 26% and 92%.
The matching figures for `O=C(NCCCOc1ccccc1)c1ccc2c(c1)NC(=O)c1ccccc1S2` [Compound 1241]: 12% and 86%.
The matching figures for `CC(=O)Nc1ccccc1NC(=O)c1ccc2c(c1)NC(=O)c1ccccc1S2` [Compound 1242]: 91% and 78%.
With `CC(=O)Nc1cccc(NC(=O)c2ccc3c(c2)NC(=O)c2ccccc2S3)c1` [Compound 1243], the activity at 10 µM in data set [1] turned out to be 20%. For the same compound, the “AD38 Viability Normalized Result (CPAM/DMSO %) at 10 μM” value in the data set on AD38 cells turned out to be 118%.
The matching figures for `O=C(NCCC1CCNCC1)c1ccc2c(c1)NC(=O)c1ccccc1S2` [Compound 1244, 11-oxo-N-(2-(piperidin-4-yl)ethyl)-10, 11-dihydrodibenzo [b,f] [1,4] thiazepine-8-carboxamide]: 14% and 103%.
Take `O=C(NCc1cncs1)c1ccc2c(c1)NC(=O)c1ccccc1S2` [Compound 1245]: in data set [1], the activity at 10 µM worked out at 1%. Moreover, the “AD38 Viability Normalized Result (CPAM/DMSO %) at 10 μM” value with AD38 cells is listed as 101%.
The matching figures for `O=C(NCCc1cnco1)c1ccc2c(c1)NC(=O)c1ccccc1S2` [Compound 1246]: 6% and 96%.
Taken in the same sequence, the figures for `O=C(NCCc1cncs1)c1ccc2c(c1)NC(=O)c1ccccc1S2` [Compound 1247] were 8% and 103%.
Taken in the same sequence, the figures for `O=C(NCCc1ccc(-n2ccnc2)cc1)c1ccc2c(c1)NC(=O)c1ccccc1S2` [Compound 1248] were 3% and 106%.
As for `O=C(NCCc1ccc(-n2cncn2)cc1)c1ccc2c(c1)NC(=O)c1ccccc1S2` [Compound 1249], in data set [1], the activity at 10 µM amounted to 34%. Moreover, in the data set on AD38 cells, the “AD38 Viability Normalized Result (CPAM/DMSO %) at 10 μM” value is recorded as 108%.
The matching figures for `O=C(NCCC1CCCCC1)c1ccc2c(c1)NC(=O)c1ccc(Cl)cc1S2` [Compound 1250]: 14% and 113%.
On to `O=C(NCC(c1ccccc1)N1CCCC1)c1ccc2c(c1)NC(=O)c1ccccc1S2` (stereo not drawn) [Compound 1251], for which the activity at 10 µM in data set [1] worked out at 8%. In addition, the “AD38 Viability Normalized Result (CPAM/DMSO %) at 10 μM” value in the data set on AD38 cells is 99%.
Taken in the same sequence, the figures for `O=C(NCCC(c1ccccc1)N1CCCC1)c1ccc2c(c1)NC(=O)c1ccccc1S2` (stereo not drawn) [Compound 1252] were 14% and 94%.
Taken in the same sequence, the figures for `CC(=O)Nc1ccccc1CNC(=O)c1ccc2c(c1)NC(=O)c1ccccc1S2` [Compound 1253] were 15% and 103%.
Taken in the same sequence, the figures for `O=C(NCCc1ccc(-n2nccn2)cc1)c1ccc2c(c1)NC(=O)c1ccccc1S2` [Compound 1256] were 1% and 102%.
Take `O=C(NCCC1CCCCC1)c1ccc2c(c1)NC(=O)c1cnccc1S2` [Compound 1257]: the activity at 10 µM in data set [1] worked out at 26%. The “AD38 Viability Normalized Result (CPAM/DMSO %) at 10 μM” value with AD38 cells is on record as 113%.
The matching figures for `O=C(NC[C@H](CO)c1ccccc1)c1ccc2c(c1)NC(=O)c1ccccc1S2` [Compound 1258]: 12% and 105%.
